Results: PMC7083880 (Nature Communications, 2020)
Values joined by “and” are separate entries in the source; they are usually repeats but may differ in a detail not shown here. Identical values can stand only once.

Assays:
Type in all cases: cell-based, human
[1] = test system: firefly luciferase construct with UGA PTC in HeLa cells; assay: UGA readthrough luciferase assay with empty expression vector (E.v.) control;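 for luciferase activity, average: DAP exposure for 24 h before luciferase measurement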;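 for luciferase activity, exp2: DAP exposure for 24 h before luciferase measurement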
Text: Firefly luciferase from HEK293FT cells transfected with the Fluc-int-UGA construct was immunoprecipitated and digested with trypsin. The MS/MS spectrum of the peptide containing the PTC position and the sequence determination are shown. The upper red and blue sequences indicate the amino acids validated, respectively, by detection of Nter and Cter peptide fragments (b and y ion series). Peptide fragments y6 and y7 clearly identify tryptophan (W) at the PTC position. The black peaks correspond to non-attributed mass-to-charge ratio (m/z) values. […] Readthrough efficiency was determined by measuring luciferase activity in HeLa cells co-transfected with the firefly luciferase construct described in Fig. 1b and with increasing amounts of an expression vector for either FTSJ1 or CTU1 (0.5, 1, or 2 µg). The empty expression vector (E.v.) was used as control. […] The experiment was performed twice and the results of both experiments (Exp1 and Exp2) are shown. c Western blot analysis of FTSJ1 and CTU1. d 2′-O-methylation analysis of tRNA^Trp, tRNA^SER, and tRNA^GLN by RiboMethSeq. […] A molecular weight marker is indicated to the left of each gel. p-values (p) were calculated using Student’s t-test. Source data are provided as a Source Data file.
Among the enzymes modifying tRNAs liable to recognize a stop codon by extended wobbling, human FTSJ1 (TRM7 in yeast) exclusively modifies tRNAs involved in UGA readthrough. In addition to other tRNA targets, FTSJ1 methylates the cytosine at position 34 of tRNA^Trp. Inhibition of this modification could increase the capacity of tRNA^Trp to misdecode and recognize the UGA stop codon. […] FTSJ1 and CTU1 overexpression were assessed by western-blot analysis (Fig. 5c).

[2] = test system: endogenous TP53 gene with UGA nonsense mutation in Calu-6 cells; assay: p53 protein western blot, Calu-6 cells; conditions: 24 h
Protocol: After 24 h of treatment, proteins were extracted from the cells and the p53 protein was assessed by western blotting (Fig. 2a). After DMSO mock treatment, as anticipated, no p53 protein was detected, because of the presence of the PTC in p53 mRNA[33].
The three leftmost lanes show twofold serial dilutions of untreated HeLa cell extract. The molecular weight is indicated to the left of each gel. b Schematic representation of the construct used to measure the function of p53. The construct carries a cDNA encoding the firefly luciferase under a promoter having two p53-responsive elements (underlined). […] The level of p21 mRNA is related to the amount of functional p53 protein synthesized in the cell. The results presented in panels b and c are representative of at least two independent experiments., p-values (p) were calculated using Student’s t-test. Source data are provided as a Source Data file.
Proteins were extracted from 2 × 10^6 cells in lysis buffer containing 5% SDS, 50 mM Tris–HCl pH 7, 20 mM EDTA, and a protease inhibitor cocktail (HALT Protease Inhibitor Cocktail, Pierce-Biotechnology, Rockford, IL, USA). Lysates were subjected to 30 pulses of sonication (Branson Digital Sonifier/amplitude 20%) before a 5 min centrifugation at 8000×g.
The equivalent of 2.5 × 10^5 cells was subjected to 10% SDS–PAGE before transfer of the proteins to a nitrocellulose membrane. […] Antibodies were then detected with Super Signal West Femto Maximum Sensitivity Substrate (Pierce-Biotechnology, Rockford, IL, USA). Quantifications were performed with QuantityOne software (Biorad). […]

[3] = test system: firefly luciferase (Fluc) gene with UAA nonsense codon at position 109 in HeLa cells; assay: Firefly luciferase readthrough assay, UAA PTC construct

## Nc1nc(N)c2[nH]cnc2n1 [DAP, 2,6-diaminopurine]
[1]; 0.39µM
  luciferase activity, average: 1690.75
  luciferase activity, exp1: 838
  luciferase activity, exp1*1,5: 1257
  luciferase activity, exp2: 2124.5
[1]; 0.78µM
  luciferase activity, average: 2398.5
  luciferase activity, exp1: 1130
  luciferase activity, exp1*1,5: 1695
  luciferase activity, exp2: 3102
[1]; 1.56µM
  luciferase activity, average: 4502.75
  luciferase activity, exp1: 2583
  luciferase activity, exp1*1,5: 3874.5
  luciferase activity, exp2: 5131
[1]; 6.25µM
  luciferase activity, average: 33564.1
  luciferase activity, exp1: 10235.5
  luciferase activity, exp1*1,5: 15353.2
  luciferase activity, exp2: 51775
[1]; 25µM
  luciferase activity, average: 96238.8
  luciferase activity, exp1: 36932
  luciferase activity, exp1*1,5: 55398
  luciferase activity, exp2: 137080
[1]; 100µM
  luciferase activity, average: 228679
  luciferase activity, exp1: 118458
  luciferase activity, exp1*1,5: 177688
  luciferase activity, exp2: 279670
[1]; 300µM
  luciferase activity, average: 215676
  luciferase activity, exp1: 106186
  luciferase activity, exp1*1,5: 159278
  luciferase activity, exp2: 272074
[1]; 600µM
  luciferase activity, average: 184925
  luciferase activity, exp1: 75195.5
  luciferase activity, exp1*1,5: 112793
  luciferase activity, exp2: 257056
[2]; Calu-6 (UGA)
  Synthesis of p53 protein (western blot): dose-dependent synthesis of the p53 protein
[2]; Calu-6, western blot
  Lowest concentration at which p53 protein was detected: 1.56 µM
[3]; DAP 3.75µM, average of 2 experiments
  Luciferase activity, UAA PTC: 370.75±86 and 370.75
[3]; DAP 3.75µM, experiment 1
  Luciferase activity, UAA PTC: 310
[3]; DAP 3.75µM, experiment 2
  Luciferase activity, UAA PTC: 431.5
[3]; DAP 37.5µM, average of 2 experiments
  Luciferase activity, UAA PTC: 610.75±408 and 610.75
[3]; DAP 37.5µM, experiment 1
  Luciferase activity, UAA PTC: 322.5
[3]; DAP 37.5µM, experiment 2
  Luciferase activity, UAA PTC: 899

## CN[C@@H]1[C@@H](O)[C@@H](O[C@@H]2[C@@H](O)[C@H](O[C@H]3O[C@H]([C@@H](C)O)[C@@H](O)[C@H](O)[C@H]3N)[C@@H](N)C[C@H]2N)OC[C@]1(C)O [G418, reference compound]
[1]; 25µM
  luciferase activity, average: 5230.12
  luciferase activity, exp1: 3250.5
  luciferase activity, exp1*1,5: 4875.75
  luciferase activity, exp2: 5584.5
[1]; 600µM
  luciferase activity, average: 9792.88
  luciferase activity, exp1: 6265.5
  luciferase activity, exp1*1,5: 9398.25
  luciferase activity, exp2: 10187.5
[2]; 25 µM, Calu-6
  p53 protein detection (western blot): barely detected
[3]; Fig. 1c
  Correction of the UAA nonsense mutation (luciferase activity), in words: only weakly corrected the UAA nonsense mutation
[3]; G418 1mg/ml, average of 2 experiments
  Luciferase activity, UAA PTC: 495±34 and 495
[3]; G418 1mg/ml, experiment 1
  Luciferase activity, UAA PTC: 471
[3]; G418 1mg/ml, experiment 2
  Luciferase activity, UAA PTC: 519
